# Assay results from patent US11739070B2, “C5A receptor modulators” (IDORSIA PHARMACEUTICALS LTD, priority 2018, dated 2023).
# Target: T1, C5AR1 (Homo sapiens, UniProt P21730)
# T1 construct: host or cells: CHO-K1
# T1 sequence (P21730 1-350): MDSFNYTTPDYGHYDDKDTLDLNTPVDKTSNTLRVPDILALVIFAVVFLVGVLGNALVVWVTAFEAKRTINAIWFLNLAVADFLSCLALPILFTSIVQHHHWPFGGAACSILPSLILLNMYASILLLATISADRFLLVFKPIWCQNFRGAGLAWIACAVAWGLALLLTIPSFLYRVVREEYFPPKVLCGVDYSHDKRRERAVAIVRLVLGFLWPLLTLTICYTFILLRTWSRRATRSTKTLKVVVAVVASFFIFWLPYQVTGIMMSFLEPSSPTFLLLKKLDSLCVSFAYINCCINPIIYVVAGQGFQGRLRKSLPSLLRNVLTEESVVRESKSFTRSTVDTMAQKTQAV
# Experiment: hC5a DISCO IC50 assay (PathHunter beta-arrestin, antagonist mode)
# Assay type: cell-based
# Details: CHO-K1 C5AR1 beta-arrestin cell line; antagonist vs 1-10 nM C5a agonist; geometric mean values; read-out: C5aR IC50
# Protocol: II. Biological Assays In Vitro Assay hC5a DISCO IC50 Assay
# 5 μl Antagonist at 6-fold end concentration or DMSO control is added to assay medium and subsequently 5 μl 1-10 nM C5a agonist at 6 fold end concentration. Cells are centrifuged for 1 min at 1000 rpm and incubated for 1.5 hour in at 37° C. Plates are equilibrated at room temperature for several minutes before adding 12 μl/well Detection Reagent (PathHunter Detection Kit, DiscoverX, Cat #93-0001). Plates are centrifuged for 1 min at 1000 rpm and incubated for 45 minutes at RT before being measured on a Fluostar Optima, BMG Labtech. IC50 values are calculated from a serial dilution range of antagonist using inhouse software and given in nmol/l.
# The calculated IC50 values may fluctuate depending on the daily cellular assay performance. Fluctuations of this kind are known to those skilled in the art. Average IC50 values from several measurements are given as geometric mean values.
row,Compound,IC50 [µM]
1,"CCOC(=O)N1CC[C@@H](n2c(=O)n(Cc3ccccc3C(F)(F)F)c3c(OC)cccc32)C1 [Example 60, (R)-3-[4-Methoxy-2-oxo-3-(2-trifluoromethyl-benzyl)-2,3-dihydro-benzoimidazol-1-yl]-pyrrolidine-1-carboxylic acid ethyl ester]",0.084
2,"COc1cccc2c1n(Cc1ccccc1C(F)(F)F)c(=O)n2[C@@H]1CCN(C(=O)OC(C)C)C1 [Example 61, (R)-3-[4-Methoxy-2-oxo-3-(2-trifluoromethyl-benzyl)-2,3-dihydro-benzoimidazol-1-yl]-pyrrolidine-1-carboxylic acid isopropyl ester]",0.065
3,"CCCCOC(=O)N1CC[C@@H](n2c(=O)n(Cc3ccccc3C(F)(F)F)c3c(OC)cccc32)C1 [Example 62, (R)-3-[4-Methoxy-2-oxo-3-(2-trifluoromethyl-benzyl)-2,3-dihydro-benzoimidazol-1-yl]-pyrrolidine-1-carboxylic acid butyl ester]",0.099
4,"COc1cccc2c1n(Cc1ccccc1C(F)(F)F)c(=O)n2[C@@H]1CCN(C(=O)Oc2ccccc2)C1 [Example 63, (R)-3-[4-Methoxy-2-oxo-3-(2-trifluoromethyl-benzyl)-2,3-dihydro-benzoimidazol-1-yl]-pyrrolidine-1-carboxylic acid phenyl ester]",0.729
5,"COc1cccc2c1n(Cc1ncccc1C(F)(F)F)c(=O)n2C1CCN(C(=O)OC(C)(C)C)CC1 [Example 64, 4-[4-Methoxy-2-oxo-3-(3-trifluoromethyl-pyridin-2-ylmethyl)-2,3-dihydro-benzoimidazol-1-yl]-piperidine-1-carboxylic acid tert-butyl ester]",2.92
6,"COc1ccccc1Cn1c(=O)n([C@@H]2CCN(C(=O)OC(C)(C)C)C2)c2cccc(OC)c21 [Example 65, (R)-3-[4-Methoxy-3-(2-methoxy-benzyl)-2-oxo-2,3-dihydro-benzoimidazol-1-yl]-pyrrolidine-1-carboxylic acid tert-butyl ester]",0.396
7,"COc1cccc2c1n(Cc1ccccc1C(F)(F)F)c(=O)n2[C@@H]1CCN(c2c(C)ccnc2C)C1 [Example 66, 1-[(R)-1-(2,4-Dimethyl-pyridin-3-yl)-pyrrolidin-3-yl]-4-methoxy-3-(2-trifluoromethyl-benzyl)-1,3-dihydro-benzoimidazol-2-one]",0.06
8,"COc1ccccc1Cn1c(=O)n([C@@H]2CCN(c3c(C)cccc3C)C2)c2cccc(OC)c21 [Example 67, 1-[(R)-1-(2,6-Dimethyl-phenyl)-pyrrolidin-3-yl]-4-methoxy-3-(2-methoxy-benzyl)-1,3-dihydro-benzoimidazol-2-one]",0.036
9,"COc1ccccc1Cn1c(=O)n([C@@H]2CCN(c3c(F)cccc3F)C2)c2cccc(OC)c21 [Example 68, 1-[(R)-1-(2,6-Difluoro-phenyl)-pyrrolidin-3-yl]-4-methoxy-3-(2-methoxy-benzyl)-1,3-dihydro-benzoimidazol-2-one]",0.084
10,"COc1cccc2c1n(Cc1ccccc1C(F)(F)F)c(=O)n2[C@@H]1CCN(c2nnc(C(C)C)o2)C1 [Example 69, 1-[(R)-1-(5-Isopropyl-[1,3,4]oxadiazol-2-yl)-pyrrolidin-3-yl]-4-methoxy-3-(2-trifluoromethyl-benzyl)-1,3-dihydro-benzoimidazol-2-one]",2.82
11,"COc1cccc2c1n(Cc1ccccc1C(F)(F)F)c(=O)n2[C@@H]1CCN(C(=O)OC2(C)COC2)C1 [Example 70, (R)-3-[4-Methoxy-2-oxo-3-(2-trifluoromethyl-benzyl)-2,3-dihydro-benzoimidazol-1-yl]-pyrrolidine-1-carboxylic acid 3-methyl-oxetan-3-yl ester]",0.538
12,"COc1cccc2c1n(Cc1ccccc1C(F)(F)F)c(=O)n2[C@@H]1CCN(c2c(C=O)c(C)nn2C)C1 [Example 71, 5-{(R)-3-[4-Methoxy-2-oxo-3-(2-trifluoromethyl-benzyl)-2,3-dihydro-benzoimidazol-1-yl]-pyrrolidin-1-yl}-1,3-dimethyl-1H-pyrazole-4-carbaldehyde]",0.133
13,"COc1cccc2c1n(Cc1ccccc1C(F)(F)F)c(=O)n2[C@@H]1CCN(C(=O)OC2COC2)C1 [Example 72, (R)-3-[4-Methoxy-2-oxo-3-(2-trifluoromethyl-benzyl)-2,3-dihydro-benzoimidazol-1-yl]-pyrrolidine-1-carboxylic acid oxetan-3-yl ester]",0.397
14,"COc1cccc2c1n(Cc1ccncc1C(F)(F)F)c(=O)n2C1CCN(c2c(C)cccc2C)CC1 [Example 73, 1-[1-(2,6-Dimethyl-phenyl)-piperidin-4-yl]-4-methoxy-3-(3-trifluoromethyl-pyridin-4-ylmethyl)-1,3-dihydro-benzoimidazol-2-one]",0.272
15,"COc1cccc2c1n(Cc1ccncc1C(F)(F)F)c(=O)n2C1CCN(c2c(F)cccc2F)CC1 [Example 74, 1-[1-(2,6-Difluoro-phenyl)-piperidin-4-yl]-4-methoxy-3-(3-trifluoromethyl-pyridin-4-ylmethyl)-1,3-dihydro-benzoimidazol-2-one]",1.33
16,"COc1cccc2c1n(Cc1ncccc1C(F)(F)F)c(=O)n2C1CCN(c2c(C)cccc2C)CC1 [Example 75, 1-[1-(2,6-Dimethyl-phenyl)-piperidin-4-yl]-4-methoxy-3-(3-trifluoromethyl-pyridin-2-ylmethyl)-1,3-dihydro-benzoimidazol-2-one]",0.027
17,"COc1cccc2c1n(Cc1ncccc1C(F)(F)F)c(=O)n2C1CCN(c2c(F)cccc2F)CC1 [Example 76, 1-[1-(2,6-Difluoro-phenyl)-piperidin-4-yl]-4-methoxy-3-(3-trifluoromethyl-pyridin-2-ylmethyl)-1,3-dihydro-benzoimidazol-2-one]",0.038
18,"COc1ccccc1Cn1c(=O)n([C@@H]2CCN(c3c(C)cccc3C)C2)c2ccnc(OC)c21 [Example 77, 1-[(R)-1-(2,6-Dimethyl-phenyl)-pyrrolidin-3-yl]-4-methoxy-3-(2-methoxy-benzyl)-1,3-dihydro-imidazo[4,5-c]pyridin-2-one]",0.089
19,"COc1ccccc1Cn1c(=O)n([C@@H]2CCN(c3c(C)cccc3F)C2)c2ccnc(OC)c21 [Example 78, 1-[(R)-1-(2-Fluoro-6-methyl-phenyl)-pyrrolidin-3-yl]-4-methoxy-3-(2-methoxy-benzyl)-1,3-dihydro-imidazo[4,5-c]pyridin-2-one]",0.121
20,"COc1cccc2c1n(Cc1ccccc1C(F)(F)F)c(=O)n2[C@@H]1CCN(c2cc(C)nn2C)C1 [Example 79, 1-[(R)-1-(2,5-Dimethyl-2H-pyrazol-3-yl)-pyrrolidin-3-yl]-4-methoxy-3-(2-trifluoromethyl-benzyl)-1,3-dihydro-benzoimidazol-2-one]",0.911
21,"COc1cccc2c1n(Cc1ccccc1C(F)(F)F)c(=O)n2[C@@H]1CCN(c2c(Cl)c(C)nn2C)C1 [Example 80, 1-[(R)-1-(4-Chloro-2,5-dimethyl-2H-pyrazol-3-yl)-pyrrolidin-3-yl]-4-methoxy-3-(2-trifluoromethyl-benzyl)-1,3-dihydro-benzoimidazol-2-one]",0.157
22,"COc1ccccc1Cn1c(=O)n([C@@H]2CCN(c3c(C)cccc3F)C2)c2cc[nH]c(=O)c21 [Example 81, 1-[(R)-1-(2-Fluoro-6-methyl-phenyl)-pyrrolidin-3-yl]-3-(2-methoxy-benzyl)-3,5-dihydro-1H-imidazo[4,5-c]pyridine-2,4-dione]",2.43
23,"COc1cccc2c1n(Cc1ccccc1C(F)(F)F)c(=O)n2[C@@H]1CCN(c2c(F)cccc2C#N)C1 [Example 82, 3-Fluoro-2-{(R)-3-[4-methoxy-2-oxo-3-(2-trifluoromethyl-benzyl)-2,3-dihydro-benzoimidazol-1-yl]-pyrrolidin-1-yl}-benzonitrile]",0.028
24,"COc1cccc2c1n(Cc1ccccc1C(F)(F)F)c(=O)n2[C@@H]1CCN(c2c(F)cccc2C=O)C1 [Example 83, 3-Fluoro-2-{(R)-3-[4-methoxy-2-oxo-3-(2-trifluoromethyl-benzyl)-2,3-dihydro-benzoimidazol-1-yl]-pyrrolidin-1-yl}-benzaldehyde]",0.023
25,"COc1cccc2c1n(Cc1ccccc1C(F)(F)F)c(=O)n2[C@@H]1CCN(c2nnc(C(F)(F)F)o2)C1 [Example 84, 4-Methoxy-3-(2-trifluoromethyl-benzyl)-1-[(R)-1-(5-trifluoromethyl-[1,3,4]oxadiazol-2-yl)-pyrrolidin-3-yl]-1,3-dihydro-benzoimidazol-2-one]",2.03
26,"COc1cccc2c1n(Cc1ccccc1C(F)(F)F)c(=O)n2[C@@H]1CCN(c2c(C)c(C)nn2C)C1 [Example 85, 4-Methoxy-3-(2-trifluoromethyl-benzyl)-1-[(R)-1-(2,4,5-trimethyl-2H-pyrazol-3-yl)-pyrrolidin-3-yl]-1,3-dihydro-benzoimidazol-2-one]",0.712
27,"COc1cccc2c1n(Cc1ccccc1C(F)(F)F)c(=O)n2[C@@H]1CCN(C(=O)OC2(C(F)(F)F)COC2)C1 [Example 86, (R)-3-[4-Methoxy-2-oxo-3-(2-trifluoromethyl-benzyl)-2,3-dihydro-benzoimidazol-1-yl]-pyrrolidine-1-carboxylic acid 3-trifluoromethyl-oxetan-3-yl ester]",0.229
